Source: ChEMBL document CHEMBL5346934 (J Med Chem, 2023)

Experiments:
Vaccinia virus [1] = assay: Antiviral activity against Vaccinia virus Copenhagen infected in human HFF cells assessed as assessed as reduction in virus-induced cytopathic effect incubated for 7 days by microscopic analysis; assay type: functional, organism-based; conditions: Orthopoxvirus vaccinia, 168 h
Vaccinia virus [2] = assay: Antiviral activity against Vaccinia virus infected in African green monkey Vero cells assessed as reduction virus induced cytopathic effect incubated for 24 hrs by MTT assay; assay type: functional, organism-based; conditions: Orthopoxvirus vaccinia
Vaccinia virus [3] = assay: Antiviral activity against Vaccinia virus Copenhagen infected in African green monkey Vero cells measured after 4 days by colorimetric assay; assay type: functional, organism-based; conditions: Orthopoxvirus vaccinia, 96 h
Cowpox virus [4] = assay: Antiviral activity against Cowpox virus Grishak infected in African green monkey Vero cells measured after 4 days by colorimetric assay; assay type: functional, organism-based; conditions: 96 h
Ectromelia virus = assay: Antiviral activity against ectromelia virus K-1 infected in Vero cells measured after 4 days by colorimetric assay; assay type: functional, organism-based; conditions: K-1, Vero, 96 h
Vaccinia virus [5] = assay: Antiviral activity against Vaccinia virus infected in African green monkey BSC-1 cells; assay type: functional, organism-based, Orthopoxvirus vaccinia
Vaccinia virus [6] = assay: Antiviral activity against Vaccinia virus VG9 infected in African green monkey BSC-1 cells; assay type: functional, organism-based, Orthopoxvirus vaccinia
Cowpox virus [7] = assay: Antiviral activity against Cowpox virus infected in Vero cells measured after 4 days by colorimetric assay; assay type: functional, organism-based; conditions: 96 h
Vaccinia virus [8] = assay: Antiviral activity against Vaccinia virus infected in African green monkey CV-1 cells assessed as reduction in virus-induced cytopathic effect incubated for 5 days by colorimetric analysis; assay type: functional, organism-based; conditions: Orthopoxvirus vaccinia, CV-1, 120 h
Vaccinia virus [9] = assay: Antiviral activity against Vaccinia virus IHD-J infected in BSC40 cells assessed as reduction in plaque formation measured after 72 hrs by crystal violet staining based analysis; assay type: functional, organism-based; conditions: Orthopoxvirus vaccinia, BSC-40, 72 h
HEL = assay: Cytotoxicity against human HEL cells assessed as reduction in cell growth; assay type: functional
Vaccinia virus [10] = assay: Antiviral activity against Vaccinia virus infected in human HEL cells; assay type: functional, organism-based; conditions: Orthopoxvirus vaccinia
[11] = Orthopoxvirus vaccinia, VG9, BSC-1

Fc1ccc(Nc2c(-c3ccccn3)nc3ccc(Cl)cn23)cc1
EC50 (Vaccinia virus [1]): 6.5 µM

CC(=O)C1=C2C=CCCN2C(=O)NC1c1ccccc1 (centres undefined)
IC50 (Vaccinia virus [2]): 5.9 µM

CCCCCCCCCCCCCCCCCCOCCOP(=O)(O)CO[C@H](CO)Cn1ccc(N)nc1=O
EC50 (Vaccinia virus [2]): 0.2 µM

CC1(C)[C@@H]2CC[C@@]1(C)[C@H](NC(=O)c1ccc(Cl)cc1)C2
IC50 (Vaccinia virus [3]): 0.6 µM
IC50 (Cowpox virus [4]): 9.2 µM
IC50 (Ectromelia virus): 3.3 µM

COC(=O)Nc1nc2cc(C(=O)c3ccccc3)ccc2[nH]1 [MEBENDAZOLE]
EC50 (Vaccinia virus [5]; Orthopoxvirus vaccinia, BSC-1): 5.6 µM
EC50 (Vaccinia virus [6]; [11]): 9.2 µM

CC1(C)/C(=N\NC(=O)c2ccc(Cl)cc2)[C@]2(C)CC[C@H]1C2
IC50 (Vaccinia virus [3]): 0.9 µM
IC50 (Cowpox virus [4]): 4.9 µM
IC50 (Ectromelia virus): 8 µM

CC1(C)[C@@H]2CC[C@@]1(C)[C@@H](NC(=O)c1ccc([N+](=O)[O-])cc1)C2
IC50 (Vaccinia virus [3]): 0.03 µM
IC50 (Cowpox virus [4]): 1.4 µM
IC50 (Ectromelia virus): 0.41 µM

CN(Cc1cnc2nc(N)nc(N)c2n1)c1ccc(C(=O)N[C@@H](CCC(=O)O)C(=O)O)cc1 [METHOTREXATE]
EC50 (Vaccinia virus [5]; Orthopoxvirus vaccinia, BSC-1): 2.2 µM
EC50 (Vaccinia virus [6]; [11]): 6.1 µM

CC1(C)[C@@H]2CC[C@@]1(C)[C@H](NC(=O)c1ccc([N+](=O)[O-])cc1)C2
IC50 (Vaccinia virus [3]): 0.9 µM
IC50 (Cowpox virus [4]): 18.4 µM
IC50 (Ectromelia virus): 8 µM

Nc1ncnc2c1ncn2COC(CO)CO
EC50 (Cowpox virus [7]): 3.5 µM

CO[C@H]1C[C@H](O[C@H]2CC[C@]3(C=O)[C@H]4CC[C@]5(C)[C@@H](C6=CC(=O)OC6)CC[C@]5(O)[C@@H]4CC[C@]3(O)C2)O[C@H](C)[C@H]1O [CYMARIN]
EC50 (Vaccinia virus [8]): 0.25 µM

Cc1nn(C)c(C)c1CCOc1c(-c2ccc3c(c2)c(CN(C)C)nn3C)ccc(F)c1F
EC50 (Vaccinia virus [9]): 0.13 µM

CCCCCCCCCCCC[N+]12CC[N+](CC#CC[N+]34CC[N+](CCCCCCCCCCCC)(CC3)CC4)(CC1)CC2
EC50 (Vaccinia virus [8]): 100 µM

CC1(C)[C@@H]2CC=C(CNC(=O)C34CC5CC(CC(C5)C3)C4)[C@H]1C2
IC50 (Vaccinia virus [3]): 1.7 µM
IC50 (Cowpox virus [4]): 4.7 µM
IC50 (Ectromelia virus): 2.7 µM

O=C1N(Nc2ccc(Cl)c(Br)c2)C(=O)C23C4C=CC5C4C4C(C=CC42)C153
CC50 (HEL): > 100 µM
IC50 (Vaccinia virus [10]): 0.16 µM

CC[C@H]1CN2CCc3cc(OC)c(OC)cc3[C@@H]2CC1C[C@H]1NCCc2cc(O)c(OC)cc21 (some centres undefined)
EC50 (Vaccinia virus [8]): 0.125 µM

CCCCCCCCCCCCCC[N+]12CC[N+](CCCC(=O)N[C@@H](Cc3c[nH]cn3)C(=O)O)(CC1)CC2
EC50 (Vaccinia virus [8]): 400 µM

N=c1ccn2c(n1)O[C@H]1[C@H](O)[C@@H](CO)O[C@H]12 [ANCITABINE]
EC50 (Vaccinia virus [8]): 10 µM

Cc1cc(C2CCCCC2)n(O)c(=O)c1 [CICLOPIROX]
EC50 (Vaccinia virus [5]; Orthopoxvirus vaccinia, BSC-1): 5.8 µM
EC50 (Vaccinia virus [6]; [11]): 6.9 µM

COc1ccc(C[C@H]2NC[C@H](O)[C@H]2OC(C)=O)cc1 [ANISOMYCIN]
EC50 (Vaccinia virus [8]): 0.25 µM

CCCCCCCCCCCCCCCCOCCCOP1(=O)COCC(Cn2ccc(N)nc2=O)O1 (centres undefined)
EC50 (Vaccinia virus [2]): 3.8 µM

CC1(C)[C@@H]2CC=C(CCNC(=O)C34CC5CC(CC(C5)C3)C4)[C@H]1C2
IC50 (Vaccinia virus [3]): 1.8 µM
IC50 (Cowpox virus [4]): 4.1 µM
IC50 (Ectromelia virus): 1.6 µM

COc1c(C)c2c(c(O)c1C/C=C(\C)CCC(=O)O)C(=O)OC2 [MYCOPHENOLIC ACID]
EC50 (Vaccinia virus [8]): 1 µM

RAUWOLFIA SERPENTINA
EC50 (Vaccinia virus [5]; bsc-1): 9.2 µM
EC50 (Vaccinia virus [6]; bsc-1): 9.8 µM

C[C@H]1O[C@@H](O[C@H]2[C@@H](O)C[C@H](O[C@H]3[C@@H](O)C[C@H](O[C@H]4CC[C@@]5(C)[C@H](CC[C@@H]6[C@@H]5C[C@@H](O)[C@]5(C)[C@@H](C7=CC(=O)OC7)CC[C@]65O)C4)O[C@@H]3C)O[C@@H]2C)C[C@H](O)[C@@H]1O [DIGOXIN]
EC50 (Vaccinia virus [8]): 0.25 µM

CC1(C)[C@@H]2CC[C@@]1(C)[C@@H](NC(=O)C1CCCCC1)C2
IC50 (Vaccinia virus [3]): 1.4 µM
IC50 (Cowpox virus [4]): 14.4 µM
IC50 (Ectromelia virus): 6.2 µM

CC1(C)[C@@H]2CC[C@@]1(C)[C@@H](NC(=O)c1ccc(C(F)(F)F)cc1)C2
IC50 (Vaccinia virus [3]): 0.6 µM
IC50 (Cowpox virus [4]): 6.1 µM
IC50 (Ectromelia virus): 6.9 µM

CC[C@H]1CN2CCc3cc(OC)c(OC)cc3[C@@H]2C[C@@H]1C[C@H]1NCCc2cc(OC)c(OC)cc21 [EMETINE]
EC50 (Vaccinia virus [8]): 0.25 µM

N#CC1(c2ccc(NC(=O)c3cccnc3NCc3ccncc3)cc2)CCCC1 [RIVOCERANIB]
EC50 (Vaccinia virus [5]; Orthopoxvirus vaccinia, BSC-1): 2.5 µM
EC50 (Vaccinia virus [6]; [11]): 2.7 µM

CCOC(=O)c1c(CSc2ccccc2)n(C)c2cc(Br)c(O)c(CN(C)C)c12 [UMIFENOVIR]
EC50 (Vaccinia virus [5]; Orthopoxvirus vaccinia, BSC-1): 6.6 µM
EC50 (Vaccinia virus [6]; [11]): 9.7 µM

CO[C@H]1[C@H](O)[C@H](O[C@H]2CC[C@@]3(C)[C@H](CC[C@@H]4[C@@H]3CC[C@]3(C)[C@@H](C5=CC(=O)OC5)CC[C@]43O)C2)O[C@@H](C)[C@@H]1O [NERIIFOLIN]
EC50 (Vaccinia virus [8]): 5 µM

CC(=O)OCC(COC(C)=O)OCn1cnc2c(N)ncnc21
EC50 (Cowpox virus [7]): 2 µM

CC1(C)[C@@H]2CC[C@@]1(C)[C@@H](NC(=O)c1ccc(Br)cc1)C2
IC50 (Vaccinia virus [3]): 0.36 µM
IC50 (Cowpox virus [4]): 1.9 µM
IC50 (Ectromelia virus): 0.7 µM

C[C@@H]1C[C@@H]([C@H](O)CC2CC(=O)NC(=O)C2)C(=O)[C@@H](C)C1 [CYCLOHEXIMIDE]
EC50 (Vaccinia virus [8]): 2 µM
